Measured values reported in US4698352A, “4-oxo-1,4-dihydronicotinic acid derivatives, salts thereof, and antibacterial agents containing the same” (Toyama Chemical Co., Ltd., priority 1982, dated 1987).
Converted amounts (≈) assume the structure as drawn. Read-outs that look alike come from different tables or passages of the source.

Experiments:
Assay in all cases: Antibacterial activity (MIC), agar dilution
Type in all cases: cell-based
Ps. aeruginosa GN3379* = conditions: Pseudomonas aeruginosa, 20 h; Ps. aeruginosa GN3379, penicillinase-producing; 10^6 cells per ml; read-out: MIC
Text: (§1) The amount of bacteria inoculated was 10^4 cells per plate (10^6 cells per ml).
(§2) * Penicillinase-producing bacteria

E. coli TK-3* = conditions: Escherichia coli, 20 h
Text: as §1, §2

Kl. pneumoniae Y-4* = conditions: Klebsiella pneumoniae, 20 h, Kl. pneumoniae Y-4, penicillinase-producing; 10^6 cells per ml; read-out: MIC
Text: as §1, §2

St. aureus F-137* = conditions: Staphylococcus aureus, 20 h, St. aureus F-137, penicillinase-producing; 10^6 cells per ml; read-out: MIC
Text: as §1, §2

E. coli NIHJ JC-2 = conditions: Escherichia coli, NIHJJC2, 20 h, E. coli NIHJ JC-2; 10^6 cells per ml; 37° C., 20 hours; read-out: MIC
Text: as §1

Ent. cloacae IID977 = conditions: Enterobacter cloacae, IID977, 20 h
Text: as §1

St. aureus FDA209P = conditions: Staphylococcus aureus, FDA209P, 20 h, St. aureus FDA209P; 10^6 cells per ml; 37° C., 20 hours; read-out: MIC
Text: as §1

Kl. pneumoniae Y-50 = conditions: Klebsiella pneumoniae, Y50, 20 h, 10^6 cells per ml, 37° C., read-out: MIC
Text: as §1

Ps. aeruginosa S-68 = conditions: Pseudomonas aeruginosa
Text: as §1

Pro. mirabilis T-111 = conditions: Proteus mirabilis, 37° C.
Text: as §1

E. coli TK-111 = conditions: Escherichia coli, TK111, 20 h, E. coli TK-111; 10^6 cells per ml; 37° C., 20 hours; read-out: MIC
Text: as §1

Kl. pneumoniae Y-41 = conditions: Klebsiella pneumoniae, Y41, 10^6 cells per ml, 37° C., 20 hours, read-out: MIC
Text: as §1

Pro. vulgaris GN3027 = conditions: Proteus vulgaris, GN3027, 20 h, Pro. vulgaris GN3027; 10^6 cells per ml; 37° C., 20 hours; read-out: MIC
Text: as §1

Aci. antitratus A-6 = conditions: 20 h, Aci. antitratus A-6; 10^6 cells per ml; 37° C., 20 hours; read-out: MIC
Text: as §1

Pro. morganii T-216 = conditions: Morganella morganii, 37° C.
Text: as §1

Ps. aeruginosa IFO3445 = conditions: Pseudomonas aeruginosa; Ps. aeruginosa IFO3445; 10^6 cells per ml; 37° C., 20 hours; read-out: MIC
Text: as §1

Ps. aeruginosa GN918** = conditions: Pseudomonas aeruginosa, Ps. aeruginosa GN918, cephalospolinase-producing, 10^6 cells per ml
Text: as §1
(§3) ** Cephalospolinase-producing bacteria

Pro. vulgaris GN76** = conditions: Proteus vulgaris
Text: as §1, §3

E. coli GN5482** = conditions: Escherichia coli, 20 h; E. coli GN5482, cephalospolinase-producing; 10^6 cells per ml; read-out: MIC
Text: as §1, §3

[1] = E. coli TK-3, penicillinase-producing, 10^6 cells per ml, read-out: MIC
[2] = Ent. cloacae IID977, 10^6 cells per ml, 37° C., 20 hours, read-out: MIC
[3] = S68, Ps. aeruginosa S-68, 10^6 cells per ml, 37° C., 20 hours, read-out: MIC
[4] = T216, 10^6 cells per ml, 20 hours, read-out: MIC

Row | SMILES | MIC (Ps. aeruginosa GN3379*) | MIC (E. coli TK-3*; [1]) | MIC (Kl. pneumoniae Y-4*) | MIC (St. aureus F-137*) | MIC (E. coli NIHJ JC-2) | MIC (Ent. cloacae IID977; [2]) | MIC (St. aureus FDA209P) | MIC (Kl. pneumoniae Y-50) | MIC (Ps. aeruginosa S-68; [3]) | MIC (Pro. mirabilis T-111; T111, 20 h, 10^6 cells per ml) | MIC (E. coli TK-111) | MIC (Kl. pneumoniae Y-41) | MIC (Pro. vulgaris GN3027) | MIC (Aci. antitratus A-6) | MIC (Pro. morganii T-216; [4]) | MIC (Ps. aeruginosa IFO3445) | MIC (Ps. aeruginosa GN918**; GN918, 20 h) | MIC (Pro. vulgaris GN76**; GN76, 20 h) | MIC (E. coli GN5482**) | further results
1 | CN1CCOc2cc(-c3cc(=O)c(C(=O)O)cn3-c3ccc(O)cc3F)ccc21 | 12.5 µg/mL (≈ 31.5 µM) | 0.78 µg/mL (≈ 1.97 µM) | 3.13 µg/mL (≈ 7.9 µM) | 0.2 µg/mL (≈ 0.505 µM) | 0.39 µg/mL (≈ 0.984 µM) | 0.78 µg/mL (≈ 1.97 µM) | 0.39 µg/mL (≈ 0.984 µM) | 0.39 µg/mL (≈ 0.984 µM) | 6.25 µg/mL (≈ 15.8 µM) | 3.13 µg/mL (≈ 7.9 µM) | 0.1 µg/mL (≈ 0.252 µM) | 3.13 µg/mL (≈ 7.9 µM) | 0.39 µg/mL (≈ 0.984 µM) | 0.39 µg/mL (≈ 0.984 µM) | 1.56 µg/mL (≈ 3.94 µM) | 6.25 µg/mL (≈ 15.8 µM) | 3.13 µg/mL (≈ 7.9 µM) | 3.13 µg/mL (≈ 7.9 µM) | ≤ 0.05 µg/mL | –
2 | CN1CCCc2cc(-c3cc(=O)c(C(=O)O)cn3-c3ccc(O)cc3)ccc21 | 12.5 µg/mL (≈ 33.2 µM) | – | 6.25 µg/mL (≈ 16.6 µM) | 0.2 µg/mL (≈ 0.531 µM) | 0.39 µg/mL (≈ 1.04 µM) | – | 0.39 µg/mL (≈ 1.04 µM) | 1.56 µg/mL (≈ 4.14 µM) | – | 3.13 µg/mL (≈ 8.32 µM) | 0.2 µg/mL (≈ 0.531 µM) | 3.13 µg/mL (≈ 8.32 µM) | 0.78 µg/mL (≈ 2.07 µM) | 0.39 µg/mL (≈ 1.04 µM) | – | 12.5 µg/mL (≈ 33.2 µM) | 3.13 µg/mL (≈ 8.32 µM) | 1.56 µg/mL (≈ 4.14 µM) | ≤ 0.05 µg/mL | MIC (E. coli TK-3*): 1.56 µg/mL (≈ 4.14 µM); MIC (Ent. cloacae IID977): 1.56 µg/mL (≈ 4.14 µM); MIC (Ps. aeruginosa S-68; S68, 20 h): 6.25 µg/mL (≈ 16.6 µM); MIC (Pro. morganii T-216; T216, 20 h, 10^6 cells per ml): 3.13 µg/mL (≈ 8.32 µM)
3 | CN(C)c1ccc(-c2cc(=O)c(C(=O)O)cn2-c2ccc(F)cc2F)cc1 | 25 µg/mL (≈ 67.5 µM) | 3.13 µg/mL (≈ 8.45 µM) | 6.25 µg/mL (≈ 16.9 µM) | 0.1 µg/mL (≈ 0.27 µM) | 0.78 µg/mL (≈ 2.11 µM) | 3.13 µg/mL (≈ 8.45 µM) | 0.2 µg/mL (≈ 0.54 µM) | 0.78 µg/mL (≈ 2.11 µM) | 12.5 µg/mL (≈ 33.8 µM) | – | 0.2 µg/mL (≈ 0.54 µM) | 6.25 µg/mL (≈ 16.9 µM) | 0.2 µg/mL (≈ 0.54 µM) | 0.39 µg/mL (≈ 1.05 µM) | 3.13 µg/mL (≈ 8.45 µM) | 12.5 µg/mL (≈ 33.8 µM) | – | – | 0.1 µg/mL (≈ 0.27 µM) | MIC (Pro. mirabilis T-111; T111, 10^6 cells per ml, 20 hours, read-out: MIC): 3.13 µg/mL (≈ 8.45 µM); MIC (Ps. aeruginosa GN918**; 20 h, read-out: MIC): 12.5 µg/mL (≈ 33.8 µM); MIC (Pro. vulgaris GN76**; 20 h, Pro. vulgaris GN76, cephalospolinase-producing, 10^6 cells per ml, read-out: MIC): 0.78 µg/mL (≈ 2.11 µM)
